Series [1] concerns pig vesicourethral junction sphincter muscle. As to the kind of experiment: Functional assay: dose response on isolated pig vesicourethral junction sphincter muscle strips. The following applies: for EC50: Sus scrofa, contraction, from dose response curve, read-out: relative potencies (EC50); for contractile response of muscle strip (representative traces): compound alone, FIG. 1; for maximum response: mean ±SEM. The format is cell-based. The text has this:
Samples of female white landrace pig bladder and urethra were obtained from freshly slaughtered pigs at the local abattoir. The pigs were killed by exsanguination after initial stunning by electric shock. The anus, rectum, bladder and urethra were then excised en bloc during evisceration and immediately transferred into pre oxygenated Krebs' solution (1 mmol/l: NaCl 120, KCl 5.9 NaHCO3 15.4, CaCl2 2.5, MgCl2 1.2, glucose 11.5) and transported to the laboratory, where they were stored in the refrigerator (at 4° C.) until ready to be processed.
The location of the vesicourethral junction sphincter was then identified. The bladders were inflated via a transurethral catheter with 200 ml. fluid. The fluid was then gently squeeze towards the outlet, until a sharp narrowing of the bladder base becomes apparent (Dass, 1997; Dass et al., 2001). Tissue sections from this region were then denuded of urothelium, and dissected transversely into a number of muscle strips.
Muscle strips measuring about 5-6 mm by 2-3 mm with an average weight of 7 mg were dissected, fine (5/0) silk threads were tied at each end of the strips and each strip mounted vertically in a 0.2 ml capacity, perspex organ bath between two recessed platinum electrodes through which electrical field stimulation (EFS) could be delivered. Strips were constantly superfused with Krebs' solution (37° C.) at a rate of 1.5 ml 1 min. The Krebs' solutions were gassed with 97% oxygen 3% carbon dioxide. Drugs were delivered by substituting drug containing solutions of the desired concentration for Krebs' solutions.
The apparatus comprised of six organ baths in parallel allowing the study of six strips simultaneously as described by Brading and Sibley (1983). Each channel was calibrated with a 1 g weight attached to the transducer before each experiment, and tissues were tensioned to 1 g after mounting. Isomeric tension generated by the strips was measured using isomeric force displacement transducers, Pioden Dynamometer UFI transducers (Pioden Controls Ltd, Canterbury, Kent) or AD Instruments MLT050/D force transducers, amplified (Harvard Transducer/Amplifier, Harvard Apparatus Ltd, Edenbridge, Kent) and analyzed using MacLab Data Acquisition system (AD Instruments, Sydney, Australia) or AD Instruments OCTAL Bridge Amplifier connected to Power Lab/8SP (AD Instruments, Sydney, Australia) and Chart v3.6 software (Macintosh) or Chart v5 (PC).
Dose response curves for the various compounds were constructed by testing one drug on a pair of strip in each experiment. The preparations were subjected to a sequence of successive 10 s […] applications of increasing doses of drugs with intervening washout periods.
1R,2S-methoxamine hydrochloride, the compound of formula (Ia) and the compound of formula (III) were made available by Norgine International Research, Middlesex.
Responses were reported as either grams of tension or % maximum force and given as mean values ±SEM. EC50 values were used as a measure of potency. The EC50 values were measured from the graph of dose response curve using the kaleidograph graphical software applications. Results were assessed using statistical analysis software, StatView 5.0 (SAS Institute Inc.) using ANOVA followed by Fisher's test. Significant difference between data was assumed with p<0.05.

Series [2] has as its system vesicourethral junction sphincter muscle strips. In words: Enzyme assay: regeneration of 1R,2S-methoxamine from compound (Ia) by gamma glutamyl transferase, reaction product tested on muscle strips. The format is cell-based, pig. The following applies: 0.3 mM. Here is the method: Regeneration of 1R,2S-methoxamine from the Compound of Formula (Ia)
Into a clean glass vial (1 ml volume) the following reaction mixtures were pipetted as follows:
200 μl compound of formula (Ia), 10 mg/ml in Tris buffer (mol. wt. 376, therefore=2 mg compound of formula (Ia)=5.3 μMoles), 100 μl solution E
Reaction product of groups 1, 2 and 3 were only tested for biological activity after 30 minutes of incubation period at 37° C. while that of group 4 were also tested after, 10, 30 and 60 minutes of incubation period. A 5 h group of which reaction mixture indicated in group four were diluted by two fold after 30 min incubation were also tested for biological activity.
Gamma glutamyl transferase, 2-1-18 porcine kidney was purchased from Calzyme Labs San Luis Obispo, Calif. 93401 USA, glyclglycine was obtained from Acros Organics, New Jersey, USA while L-glutamic acid 5-(4-nitroanilide) was purchased from Fluka Chemie Switzerland.
The reaction mixture was incubated in HOT BOX oven, size one incubator made by Gallenpark, England, while the absorbance was measured (@λmax 405 nm), using Anthos 2020 UV/VIS spectrophotometer.
Representative traces of pig vesicourethral junction sphincter muscle response to various enzyme reaction products are shown in FIG. 3 and representative traces of pig proximal sphincter muscle response to various enzyme reaction products are shown in FIG. 4. The enzyme reaction products tested are as follows: • FIG. 3a-50 mM Tris HCl buffer; • FIG. 3b-50 mM Tris HCl buffer, gamma glutamyl transferase. • FIG. 3c-50 mM Tris HCl buffer, MgCl2.6H2O, glycylglycine, compound of formula (Ia); • FIG. 4a-50 mM Tris HCl buffer, MgCl2.6H2O, glycylglycine, gamma glutamyl transferase, compound of formula (Ia); • FIG. 4b-0.3 mM 1R,2S-methoxamine.

The nature of series [3]: Influence of intra-anally applied 1R,2S-methoxamine gel on micturition in subjects. The format is in vivo. The following applies: experimental studies with appreciable systemic levels. Here is the method: The study was conducted according to the following protocol:
• a) 1% by weight 1R,2S-methoxamine in 4% w/w gel • b) 3% by weight 1R,2S-methoxamine in 4% w/w gel • The 4% w/w gel comprises 4 g of hydroxypropylmethyl cellulose in 96 ml of 0.5M acetate buffer. 1% by weight 1R,2S-methoxamine in 4% w/w gel comprises 1 g of 1R,2S-methoxamine in 99 g of the 4% gel. Investigation
In a study for other purposes including 44 subjects, each subject had either the 3% methoxamine gel or the 1% methoxamine gel applied intra-anally. About 1 g of gel was used.

Series [4] relates to mini pigs. The conditions noted are these: 1 mg/kg i.v., at maximum effect; cited from earlier work.

As a reminder, the EC50 is the concentration needed to bring the measured effect to its halfway point. For `COc1ccc(OC)c([C@@H](O)[C@H](C)NC(=O)[C@@H](N)CCC(=O)O)c1` [compound of formula (III), (S)-4-Amino-4-[(1S,2R)-2-(2,5-dimethoxyphenyl)-2-hydroxy-1-methyl-ethylcarbamoyl]butyric acid], in series [1], the “biological activity retained relative to 1R,2S-methoxamine” value is on record as “approximately 10%”, the EC50 amounted to 495 µM and the “contractile response of muscle strip (representative traces)” value is given as “well defined contractile response”. In series [1] (observed at 10^−2M), this molecule showed a maximum response of 1.33 g.
Consider `COc1ccc(OC)c([C@@H](O)[C@H](C)N)c1` [1R,2S-methoxamine, (1R,2S)-2-amino-1-(2,5-dimethoxyphenyl)propan-1-ol], for which the “less effective than Mg^2+-glycylglycine-compound of formula (Ia)-enzyme mixture” value in series [2] is given as 29%. Further, the “contractile (bladder) response” value in series [2] (no enzyme) turned out to be 1.15 g. Besides, the “unwanted systemic side effects” value in series [3] is “elevation of blood pressure”. Also, in series [4], the “rise in diastolic pressure” value is 57% and the “rise in systolic pressure” value is given as 23%. Further, in series [1], the EC50 was determined as 56.2 µM and the “contractile response of muscle strip (representative traces)” value is “pronounced well defined contractile response”. This molecule showed a maximum response in series [1] (at a concentration of 10^−3M) of 1.12 g.

The values above are taken from patent US20080090916A1, “Compounds for Treating Urinary Incontinence” (priority 2005, published 2008).
